Results published in patent publication US12061186B2, “Compositions and methods for using cross-dressing to enhance anti-tumor immune responses” (Massachusetts Institute of Technology, priority 2020, dated 2024).

Test system: MC38-SIY tumor cells
Assay: IFNγ-ELISpot of splenocytes from mice implanted with PRR agonist-coated tumor cells
Format: in vivo
Protocol: Tumor cell lines were cultured at 37° C. and 5% CO2 in DMEM (Gibco) supplemented with 10% FBS (Atlanta Biologicals), 1% penicillin/streptomycin (Gibco), and 1×HEPES (Gibco). Tumor cells were harvested by trypsinization (Gibco) and washed 3 times with PBS (Gibco). Cells were resuspended in PBS, and 2×10^6 tumor cells were injected subcutaneously into the flanks of mice. For experiments with pattern recognition receptor (PRR) agonist coating, 2×10^6 tumor cells were resuspended with 50 μg naked Poly(I:C) HMW (InvivoGen), DMXAA (InvivoGen), or Pam2CSK4 (InvivoGen) in PBS and injected subcutaneously into the flanks of mice. All PRR agonists were added to cells without a transfection reagent. For experiments with fixed tumor cells, the cells were fixed with 4% paraformaldehyde (Electron Microscopy Sciences) for 10 minutes at RT, washed twice and resuspended with PBS, and 2×10^6 tumor cells were injected subcutaneously into the flanks of mice. Tumor area measurements (calculated as length×width) were collected 2-3 times a week until the endpoint of the study. Data not shown but available upon request—Details on experimental cohorts, the raw data, as well as the power calculations for all tumor outgrowth experiments.
ELISpot plates (EMD Millipore) were coated overnight at 4° C. with anti-IFNγ (BD Biosciences). Plates were washed and blocked with DMEM supplemented with 10% FBS, 1% penicillin/streptomycin, and 1×HEPES for 2 hours at room temperature (RT). Spleens were harvested from mice at day 5 or day 7 post-tumor inoculation and mashed through a 70 μm filter with a 1 mL syringe plunger to generate a single cell suspension. Red blood cells were lysed with 500 μL of ACK Lysing Buffer (Gibco) on ice for 2 minutes. Splenocytes were washed 3 times with chilled PBS and 1×10^6 cells were assayed per well in the presence or absence of 160 nM SIY peptide or 100 ng/mL PMA (Sigma-Aldrich) and 1 μg/mL ionomycin (Sigma-Aldrich) as a positive control. Plates were developed the next day using the BD mouse IFNγ-ELISpot kit, following manufacturer's protocol.

“polyinosinic-polycytidylic acid [Poly(I:C)]” was tested, and the “induction of antigen-specific T cell responses (IFNγ-ELISpot)” value (Poly(I:C)-coated 4% PFA-fixed MC38-SIY tumor cells) was “failed to induce any antigen-specific T cell responses”, the “antigen-specific T cell responses restored, as share of the priming responses observed in WT mice (IFNγ-ELISpot)” value (Poly(I:C)-coated MC38-SIY tumor cells implanted in Batf3−/− mice, day 7 post-tumor inoculation, 50 μg per 2×10^6 cells) was 45.0% and the “restoration of T cell responses (IFNγ-ELISpot)” value (Poly(I:C)-coated MHC class I-deficient (β2M−/−) MC38-SIY tumor cells, Batf3−/− mice) was “no restoration”.
